Source: US10744150B2, “Cyclic dinucleotides as anticancer agents” (BRISTOL-MYERS SQUIBB COMPANY, priority 2017, dated 2020)
pEC50, pIC50: −log10 of the molar value. Like-named read-outs stand apart in the source and are kept apart here.

Experiments:
[1] = target: T1, STING AQ: His-TVMV-S-hSTING(155-341)-G230A-R293Q (Homo sapiens, UniProt Q86WV6, G230A/H232R/R293Q); test: STING HTRF binding assay (time resolved FRET competition), STING AQ; conditions: 20 nM His-tagged STING cytoplasmic domain, 40 nM fluorescein-labeled cGAMP analog probe, one hour; read-out: HTRF Binding Assays IC50 STING AQ
T1 construct: His-TVMV-S-hSTING(155-341)-G230A-R293Q
T1 sequence (Q86WV6 with tags, fused parts or gaps G230A/H232R/R293Q): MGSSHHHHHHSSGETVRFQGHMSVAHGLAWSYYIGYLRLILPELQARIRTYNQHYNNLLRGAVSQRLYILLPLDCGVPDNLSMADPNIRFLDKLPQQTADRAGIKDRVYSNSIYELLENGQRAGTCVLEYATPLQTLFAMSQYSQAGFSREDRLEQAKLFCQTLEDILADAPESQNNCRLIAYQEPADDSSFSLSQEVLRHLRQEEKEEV
Method: (§1) A time resolved FRET-based competition binding assay was used to assess test article binding to STING WT and STING AQ. His-tagged STING cytoplasmic domain (WT or AQ) at a concentration of 20 nM was incubated with 2.5 nM Tb-labeled anti-His antibody, test compound, and fluorescein-labeled cGAMP analog probe (BioLog cat. no. C195) at a concentration of 200 nM (STING WT) or 40 nM (STING AQ) in PBS containing 0.005% Tween-20 and 0.1% BSA for one hour. Fluorescence at 495 nm and 520 nm was measured using an EnVision microplate reader to quantify FRET between Tb-labeled anti-His antibody and fluorescein-labeled probe. Background was defined as the signal obtained in the absence of STING protein, and background subtracted FRET ratios were normalized to the maximum signal obtained in the absence of test compound. These values were converted to a percent inhibition. Percent inhibition was determined for test compounds at 11 concentrations. The IC50, defined as the concentration of competing test compound needed to reduce specific binding of the probe by 50%, was calculated using the 4 parameter logistic equation to fit the data

[2] = target: T2, STING WT: His-TVMV-S-hSTING(155-341)-H232R (Homo sapiens, UniProt Q86WV6, H232R); test: STING HTRF binding assay (time resolved FRET competition), STING WT; conditions: 20 nM His-tagged STING cytoplasmic domain, 200 nM fluorescein-labeled cGAMP analog probe, one hour; read-out: HTRF Binding Assays IC50 STING WT
T2 construct: His-TVMV-S-hSTING(155-341)-H232R
T2 sequence (Q86WV6 with tags, fused parts or gaps H232R): as the sequence (Q86WV6 with tags, fused parts or gaps G230A/H232R/R293Q) above, with A99G, Q162R counted along it
Method: as §1

NFkB = test: STING THP1 reporter assay, NF-κB pathway (SEAP, QUANTI-Blue); type: cell-based; conditions: THP1-Dual cells, 10% human plasma, 100% activation = 100 μM cGAMP
Source text: (§2) THP1-Dual™ cells were derived from the human THP-1 monocyte cell line by stable integration of two inducible reporter constructs. To this end, THP1-Dual™ cells allow the simultaneous study of the NF-κB pathway, by monitoring the activity of SEAP, and the IRF pathway by assessing the activity of a secreted luciferase (Lucia). Both reporter proteins are readily measurable in the cell culture supernatant when using QUANTI-Blue™, a SEAP detection reagent, and QUANTI-Luc™, a luciferase detection reagent.
(§3) THP1-Dual™ cells induce the activation of NF-κB in response to STING agonists. They also trigger the IRF pathway upon stimulation with STING agonists, such as cGAMP. Here, the THP-1-Dual cells were used to assess STING binders for function on the cellular level.
(§4) Serial dilutions of compounds in DMSO were added to low volume 384 well plates at 100 nl/well using an ECHO acoustic dispenser (Labcyte, model 550) to achieve final starting concentration of 100 μM in cell suspension. THP-1 Dual™ STING reporter cells (Invivogen, Dual cells cat # THPD-nfis) were added to the plates with compounds at 15,000 cells in 10 μL per well in RPMI media (Gibco, cat #11875) containing 10% human plasma in a low volume 384-well black wall clear bottom tissue culture plate (Corning, cat #3542) for SEAP assay and low volume solid white plate (Corning, cat #3826) for luciferase assay. One column of the plate was reserved for treatment with cGAMP at 100 μM for 100% activation calculation and one column for no treatment (DMSO only) for baseline activation. Plates were then incubated in 37° C. incubator at 5% CO2 for 20 hours.
(§5) In the SEAP assay, 5 μl of 2× QuantiBlue (Invivogen, cat # Rep-qb2) is added to 384 well black plates seeded with THP1 cells and incubated at 37° C. for 2 hours. Plates were read on the Envision (Perkin Elmer) at 620 nm wavelength (OD620). In the luciferase assay, 5 μl of Quantiluc (Invivogen, Rep-qlc2) is added to white 384 well plates seeded with THP1 cells and read at 5 minutes on the Envision (Perkin Elmer) using a luminescence protocol (RLU). For both cell lines, 100% activation was determined by value (RLU) of THP-1 Dual STING cells stimulated with 100 μM cGAMP (Invivogen, cat # TLRL-NACGA23-5).

IRF3 = test: STING THP1 reporter assay, IRF pathway (secreted luciferase Lucia, QUANTI-Luc); type: cell-based; conditions: THP1-Dual cells, 10% human plasma, 100% activation = 100 μM cGAMP, luciferase readout, read-out: THP1 Reporter Assays EC50 IRF3
Source text: as §2, §3, §4, §5

[3] = 20 hours, SEAP readout OD620, read-out: THP1 Reporter Assays EC50 NFkB
[4] = Homo sapiens, THP-1, 20 h, SEAP readout OD620, read-out: THP1 Reporter Assays EC50 NFkB

`Nc1nc2c(ncn2[C@@H]2C[C@@H]3COP(O)(=S)O[C@H]4[C@@H](F)[C@H](n5cnc6c(N)ncnc65)O[C@@H]4COP(O)(=S)OC[C@H]32)c(=O)[nH]1` (single isomer, unassigned) [Example 18-3] was tested, and the pIC50 [1] was 7.70, the pIC50 [2] was 6.28 and the pEC50 (NFkB; [3]) was less than 4.00. It also gave a pEC50 (IRF3; 20 hours) of less than 4.00.

With `Nc1ncnc2c1ncn2[C@@H]1C[C@@H]2COP(O)(=S)O[C@H]3[C@H](F)[C@H](n4ccc5c(Cl)ncnc54)O[C@@H]3COP(O)(=S)OC[C@H]21` (single isomer, unassigned) [Example 7-4] the pIC50 [1] was 5.20, the pIC50 [2] was 4.31 and the pEC50 (NFkB; [3]) was less than 4.00. It also gave a pEC50 (IRF3; 20 hours) of less than 4.00.

Work on `Nc1nc2c(ncn2[C@@H]2C[C@@H]3COP(O)(=S)O[C@H]4[C@@H](F)[C@H](n5cnc6c(N)ncnc65)O[C@@H]4COP(O)(=S)OC[C@H]32)c(=O)[nH]1` (single isomer, unassigned) [Example 18-1] yielded a pIC50 [1] of 8.70, a pIC50 [2] of 8.40 and a pEC50 (NFkB; [3]) of 5.59. The pEC50 (IRF3; 20 hours) was 6.22.

`NC(=O)c1cccc2c1nnn2[C@@H]1O[C@@H]2COP(O)(=S)OC[C@@H]3[C@@H](COP(O)(=S)O[C@H]2[C@H]1F)C[C@H]3n1cnc2c(N)ncnc21` (single isomer, unassigned) [Example 12-2] was tested, and the pIC50 [1] was 4.05, the pIC50 [2] was less than 4.00 and the pEC50 (NFkB; [3]) was less than 4.00. It also gave a pEC50 (IRF3; 20 hours) of less than 4.00.

`Nc1ncnc2c1ncn2[C@@H]1C[C@@H]2COP(=O)(S)O[C@H]3[C@@H](F)[C@H](n4cnc5c(N)ncnc54)O[C@@H]3COP(=O)(S)OC[C@H]21` (single isomer, unassigned) [Example 1-2] showed a pIC50 [1] of 8.00, a pIC50 [2] of 7.05 and a pEC50 (NFkB; [3]) of 5.22. For the same compound, the pEC50 (IRF3; 20 hours) was 5.52.

`Nc1ncnc2c1ncn2[C@@H]1O[C@@H]2COP(O)(=S)OC[C@@H]3[C@@H](COP(O)(=S)O[C@H]2[C@H]1F)C[C@H]3n1cnc2c(O)nc3nccn3c21` (single isomer, unassigned) [Example 3-3] showed a pIC50 [1] of 6.85, a pIC50 [2] of 6.74 and a pEC50 (NFkB; [3]) of 4.24. It also gave a pEC50 (IRF3; 20 hours) of 4.48.

`Nc1ncnc2c1ncn2[C@@H]1O[C@@H]2COP(O)(=S)OC[C@@H]3[C@@H](COP(O)(=S)O[C@H]2[C@H]1F)C[C@H]3n1cnc2c(O)nc3nccn3c21` (single isomer, unassigned) [Example 3-2] was tested, and the pIC50 [1] was 6.34, the pIC50 [2] was 5.40 and the pEC50 (NFkB; [3]) was less than 4.00. It also gave a pEC50 (IRF3; 20 hours) of less than 4.00.

`Nc1ncnc2c1ncn2[C@@H]1C[C@@H]2COP(O)(=S)O[C@H]3[C@@H](F)[C@H](n4cnc5c(=O)[nH]c6nccn6c54)O[C@@H]3COP(O)(=S)OC[C@H]21` (single isomer, unassigned) [Example 9-1] showed a pIC50 [1] of 4.70, a pIC50 [2] of less than 4.00 and a pEC50 (NFkB; [4]) of less than 4.00. It also gave a pEC50 (IRF3; Homo sapiens, THP-1, 20 h) of less than 4.00.

`Nc1ncnc2c1ccn2[C@@H]1O[C@@H]2COP(O)(=S)OC[C@@H]3[C@@H](COP(O)(=S)O[C@H]2[C@@H]1F)C[C@H]3n1cnc2c(N)ncnc21` (single isomer, unassigned) [Example 8-3] showed a pIC50 [1] of less than 4.00, a pIC50 [2] of less than 4.00 and a pEC50 (NFkB; [3]) of less than 4.00. It also gave a pEC50 (IRF3; 20 hours) of less than 4.00.

For `Nc1ncnc2c1ncn2[C@@H]1O[C@@H]2COP(O)(=S)OC[C@@H]3[C@@H](COP(O)(=S)O[C@H]2[C@H]1F)C[C@H]3n1cnc2c(O)nc3nccn3c21` (single isomer, unassigned) [Example 3-4], the pIC50 [1] was 7.05, the pIC50 [2] was 6.00 and the pEC50 (NFkB; [3]) was 4.40. The pEC50 (IRF3; 20 hours) was 4.51.

In the case of `Nc1ncnc2c1ncn2[C@@H]1O[C@@H]2COP(O)(=S)OC[C@@H]3[C@@H](COP(O)(=S)O[C@H]2[C@H]1F)C[C@H]3n1cnc2c(=O)[nH]cnc21` (single isomer, unassigned) [Example 5-1], the pIC50 [1] was 7.00, the pIC50 [2] was 5.24 and the pEC50 (NFkB; [4]) was less than 4.00. It also gave a pEC50 (IRF3; 20 hours) of less than 4.00.

`Nc1nc2c(ncn2[C@@H]2C[C@@H]3COP(O)(=S)O[C@H]4[C@@H](F)[C@H](n5cnc6c(N)ncnc65)O[C@@H]4COP(O)(=S)OC[C@H]32)c(=O)[nH]1` (single isomer, unassigned) [Example 18-4] gave a pIC50 [1] of 8.40, a pIC50 [2] of 7.30 and a pEC50 (NFkB; [3]) of 4.13. For the same compound, the pEC50 (IRF3; 20 hours) was less than 4.00.

`Nc1ncnc2c1ncn2[C@@H]1C[C@@H]2COP(O)(=S)O[C@H]3[C@@H](F)[C@H](n4cnc5c(=O)[nH]c6nccn6c54)O[C@@H]3COP(O)(=S)OC[C@H]21` (single isomer, unassigned) [Example 9-2] gave a pIC50 [1] of 6.04, a pIC50 [2] of 5.37 and a pEC50 (NFkB; [3]) of less than 4.00. It also gave a pEC50 (IRF3; 20 hours) of less than 4.00.

In the case of `Nc1ncnc2c1ncn2[C@@H]1C[C@@H]2COP(O)(=S)O[C@H]3[C@H](F)[C@H](n4cnc5c(N)ncnc54)O[C@@H]3COP(O)(=S)OC[C@H]21` (single isomer, unassigned) [Example 17-1], the pIC50 [1] was less than 4.00, the pIC50 [2] was less than 4.00 and the pEC50 (NFkB; [3]) was 5.70. The pEC50 (IRF3; Homo sapiens, THP-1, 20 h) was less than 4.00.

With `Nc1ncnc2c1ncn2[C@@H]1C[C@@H]2COP(O)(=S)O[C@H]3[C@@H](F)[C@H](n4cnc5c(=O)[nH]c6nccn6c54)O[C@@H]3COP(O)(=S)OC[C@H]21` (single isomer, unassigned) [Example 9-4] the pIC50 [1] was 7.10, the pIC50 [2] was 5.85 and the pEC50 (NFkB; [3]) was less than 4.00. For the same compound, the pEC50 (IRF3; 20 hours) was less than 4.00.

With `Nc1ncnc2c1ccn2[C@@H]1O[C@@H]2COP(O)(=S)OC[C@@H]3[C@@H](COP(O)(=S)O[C@H]2[C@@H]1F)C[C@H]3n1cnc2c(N)ncnc21` (single isomer, unassigned) [Example 8-4] the pIC50 [1] was 4.80, the pIC50 [2] was less than 4.00 and the pEC50 (NFkB; [3]) was less than 4.00. For the same compound, the pEC50 (IRF3; 20 hours) was less than 4.00.

Compound `NC(=O)c1cccc2c1nnn2[C@@H]1C[C@@H]2COP(O)(=S)O[C@H]3[C@@H](F)[C@H](n4cnc5c(N)ncnc54)O[C@@H]3COP(O)(=S)OC[C@H]21` (single isomer, unassigned) [Example 13-2] has a pIC50 [1] of 5.52, a pIC50 [2] of less than 4.00 and a pEC50 (NFkB; [3]) of less than 4.00. For the same compound, the pEC50 (IRF3; 20 hours) was less than 4.00.

Compound `NC(=O)c1cccc2c1nnn2[C@@H]1O[C@@H]2COP(O)(=S)OC[C@@H]3[C@@H](COP(O)(=S)O[C@@H]1[C@@H]2F)C[C@H]3n1cnc2c(N)ncnc21` (single isomer, unassigned) [Example 11-3] has a pIC50 [1] of 6.96, a pIC50 [2] of 6.09 and a pEC50 (NFkB; [3]) of 4.29. It also gave a pEC50 (IRF3; 20 hours) of 4.15.
